The target of test [1] is T1, human bradykinin 1 receptor (B1R) (Homo sapiens, UniProt P46663).
T1 construct: expressed in transfected cells; host or cells: CHO K1 cells
T1 sequence (P46663 1-353): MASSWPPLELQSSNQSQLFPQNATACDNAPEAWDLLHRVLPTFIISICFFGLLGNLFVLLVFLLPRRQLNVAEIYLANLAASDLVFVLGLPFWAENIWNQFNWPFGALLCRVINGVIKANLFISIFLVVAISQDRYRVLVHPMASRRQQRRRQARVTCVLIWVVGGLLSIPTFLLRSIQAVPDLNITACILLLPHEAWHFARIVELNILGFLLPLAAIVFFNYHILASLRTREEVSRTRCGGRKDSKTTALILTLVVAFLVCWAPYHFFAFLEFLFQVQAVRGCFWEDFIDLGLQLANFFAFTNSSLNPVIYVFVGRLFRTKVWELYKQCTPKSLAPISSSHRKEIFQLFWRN
The test is described as follows: Functional investigation on the human bradykinin 1 receptor (B1R), Ca2+ FLIPR assay in CHO K1 hB1R cells. In kind it is cell-based. The procedure, abridged:
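Stably transfected CHO K1 cells loaded with Fluo-4; FLIPR Ca2+ fluorescence peak (ex 488/em 540 nm). Compound added first (agonism vs Lys-Des-Arg9-bradykinin ≥50 nM human, Des-Arg9-bradykinin 10 μM rat), then after 10-20 min agonist at EC80; antagonism as % inhibition, IC50 from concentration series, n=2-3, N≥2.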

Test [2] addresses T2, bradykinin 1 receptor (B1R) of the rat (Rattus norvegicus, UniProt P97583).
T2 construct: expressed in transfected cells; host or cells: CHO K1 cells
T2 sequence (P97583 1-337): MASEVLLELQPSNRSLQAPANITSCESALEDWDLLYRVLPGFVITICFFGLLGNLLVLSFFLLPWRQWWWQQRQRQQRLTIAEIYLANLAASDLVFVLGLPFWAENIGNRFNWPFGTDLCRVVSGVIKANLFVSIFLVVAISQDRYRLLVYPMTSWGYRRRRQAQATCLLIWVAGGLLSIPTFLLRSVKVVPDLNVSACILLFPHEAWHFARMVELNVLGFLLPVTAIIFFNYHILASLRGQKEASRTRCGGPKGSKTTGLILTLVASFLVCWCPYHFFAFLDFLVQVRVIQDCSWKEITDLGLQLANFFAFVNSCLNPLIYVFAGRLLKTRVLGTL
Description: Functional investigation on the rat bradykinin 1 receptor (B1R), Ca2+ FLIPR assay in CHO K1 rB1R cells. In kind it is cell-based. From the text: Functional Investigation on the Human Bradykinin 1 Receptor (B1R)
The agonistic or antagonistic action of substances can be determined on the bradykinin 1 receptor (B1R) of the human species and rats with the following assay. In accordance with this assay, the Ca^2+ inflow through the channel is quantified with the aid of a Ca^2=-sensitive dyestuff (type Fluo-4, Molecular Probes Europe BV, Leiden, Holland) in a fluorescent imaging plate reader (FLIPR, Molecular Devices, Sunnyvale, USA).
Chinese hamster ovary cells (CHO K1 cells) transfected stably with the human B1R gene (hB1R cells) or the B1R gene of the rat (rB1R cells) are used. For functional studies, these cells are plated out on black 96-well plates with a clear base (BD Biosciences, Heidelberg, Germany or Greiner, Frickenhausen, Germany) in a density of 20,000-35,000 cells/well. The cells are left overnight at 37° C. and 5% CO2 in culture medium (hB1R cells: Nutrient Mixture Ham's F12, Gibco Invitrogen GmbH, Karlsruhe, Germany or DMEM, Sigma-Aldrich, Taufkirchen, Germany; rB1R cells: D-MEM/F12, Gibco Invitrogen GmbH, Karlsruhe, Germany) with 10 vol. % of FBS (foetal bovine serum, Gibco Invitrogen GmbH, Karlsruhe, Germany or PAN Biotech GmbH, Aidenbach, Germany).
On the following day, the cells are loaded for 60 min at 37° C. with 2.13 μM Fluo-4 (Molecular Probes Europe BV, Leiden, The Netherlands) in HBSS buffer (Hank's buffered saline solution, Gibco Invitrogen GmbH, Karlsruhe, Germany) with 2.5 mM probenecid (Sigma-Aldrich, Taufkirchen, Germany) and 10 mM HEPES (Sigma-Aldrich, Taufkirchen, Germany). The plates are then washed 2× with HBSS buffer, and HBSS buffer which additionally contains 0.1% of BSA (bovine serum albumin; Sigma-Aldrich, Taufkirchen, Germany), 5.6 mM glucose and 0.05% of gelatine (Merck KGaA, Darmstadt, Germany) is added. After a further incubation of 20 minutes at room temperature, the plates are inserted into the FLIPR for the Ca^2+ measurement.
Alternatively, the plates are washed with buffer A (15 mM HEPES, 80 mM NaCl, 5 mM KCl, 1.2 mM CaCl2, 0.7 mM MgSO4, 2 g/l glucose, 2.5 mM probenecid), buffer A is added and the plates are loaded with 2.5 μM Fluo-4 and 0.025% of Pluronic F127 (Sigma-Aldrich, Taufkirchen, Germany). Thereafter, the cells are washed 2× with buffer A and incubated for 30 minutes with buffer A, which additionally contains 0.05% of BSA and 0.05% of gelatine, at room temperature and thereafter inserted into the FLIPR for the Ca^2+ measurement.
The Ca^2+-dependent fluorescence is measured before and after addition of substances (λex=488 nm, λem=540 nm). Quantification is by measurement of the highest fluorescence intensity (FC, fluorescence counts) over time.
The FLIPR protocol consists of 2 additions of substance. Test substances (10 μM) are first pipetted on to the cells and the Ca^2+ inflow is compared with the control (hB1R: Lys-Des-Arg^9-bradykinin >=50 nM; rB1R: Des-Arg^9-bradykinin 10 μM). This gives the information in % activation based on the Ca^2+ signal after addition of Lys-Des-Arg^9-bradykinin (>=50 nM) or Des-Arg^9-bradykinin (10 μM).
After incubation for 10-20 minutes, Lys-Des-Arg^9-bradykinin (hB1R) or Des-Arg^9-bradykinin (rB1R) is applied in the concentration of the EC80 and the inflow of Ca^2+ is likewise determined.
Antagonists lead to a suppression of the Ca^2+ inflow. % inhibition compared with the maximum achievable inhibition is calculated.
To determine the IC50 value, the substances are added in various concentrations. Duplicate or triplicate determinations (n=2 or n=3) are carried out, and these are repeated in at least one further independent experiment (N>=2).
Preferably, the compounds have a B1R antagonistic action on the human receptor and/or on the rat receptor. The following data are given by way of example in the following table: (In this, “B1R Ant. h” represents “B1R antagonism human” and “B1R Ant. r” represents “B1R antagonism rat”)

Setting [3] is: CHO-K1, B1R antagonism human, test substance 10 μM, Ca2+ FLIPR, CHO K1 hB1R cells, read-out: B1R Ant. h [10 μM] % Inhibition.
The mark [4] stands for this setting: CHO-K1, B1R antagonism rat, test substance 10 μM, Ca2+ FLIPR, CHO K1 rB1R cells, read-out: B1R Ant. r [10 μM] % Inhibition.
[5] abbreviates: CHO-K1, read-out: B1R Ant. h [10 μM] % Inhibition.
Where [6] appears, read: CHO-K1, read-out: B1R Ant. r [10 μM] % Inhibition.

Where two headings read alike, the source gives them in different places.

10 compounds from patent US8106055B2, “Substituted amide compounds” (Gruenenthal GmbH, priority 2007, dated 2012) can be followed below.

With `CN(C)C(CCc1ccccc1)C1CCC(NC(=O)CNC(=O)c2nc(-c3cccs3)no2)CC1` (centres unmarked) [Example 784, 3-thiophen-2-yl-[1,2,4]oxadiazole-5-carboxylic acid {[4-(1-dimethylamino-3-phenyl-propyl)-cyclohexylcarbamoyl]-methyl}-amide], the inhibition at 10 µM in test [1] (setting [3]) was 76%; in test [2] (setting [4]), -1%.

`CN(C)C(CCc1ccccc1)C1CCC(NC(=O)CNC(=O)c2nc(-c3ccc(C(F)(F)F)cc3)no2)CC1` (centres unmarked) [Example 785, 3-(4-trifluoromethyl-phenyl)-[1,2,4]oxadiazole-5-carboxylic acid {[4-(1-dimethylamino-3-phenyl-propyl)-cyclohexylcarbamoyl]-methyl}-amide]: the inhibition at 10 µM is 76% in test [1] (setting [3]) and 32% in test [2] (setting [4]).

`CN(C)C(CCc1ccccc1)C1CCC(NC(=O)CNC(=O)c2nc(-c3ccc(C(C)(C)C)cc3)no2)CC1` (centres unmarked) [Example 786, 3-(4-tert-butyl-phenyl)-[1,2,4]oxadiazole-5-carboxylic acid {[4-(1-dimethylamino-3-phenyl-propyl)-cyclohexylcarbamoyl]-methyl}-amide]: the inhibition at 10 µM in test [1] (setting [3]) was 35%; in test [2] (setting [4]) it was -4%.

As for `COc1ccccc1-c1noc(C(=O)NCC(=O)NCC2CCC(C(c3cccc(F)c3)N(C)C)CC2)n1` (centres unmarked) [Example 787, 3-(2-methoxy-phenyl)-[1,2,4]oxadiazole-5-carboxylic acid [({4-[dimethylamino-(3-fluoro-phenyl)-methyl]-cyclohexylmethyl}-carbamoyl)-methyl]-amide], the inhibition at 10 µM in test [1] (setting [3]) was found to be 19%; in test [2] (setting [4]), 11%.

As to `CN(C)C(CCc1ccccc1)C1CCC(NC(=O)CCNC(=O)c2nc(-c3ccc(Cl)cc3Cl)no2)CC1` (centres unmarked) [Example 788, 3-(2,4-dichloro-phenyl)-[1,2,4]oxadiazole-5-carboxylic acid {2-[4-(1-dimethylamino-3-phenyl-propyl)-cyclohexylcarbamoyl]-ethyl}-amide], the values for the inhibition at 10 µM in test [1] (setting [3]) and in test [2] (setting [4]) were 90% and 11%, respectively.

Take `COc1ccc(-c2noc(C(=O)NCCC(=O)NC3CCC(C(CCc4ccccc4)N(C)C)CC3)n2)cc1OC` (centres unmarked) [Example 789, 3-(3,4-dimethoxy-phenyl)-[1,2,4]oxadiazole-5-carboxylic acid {2-[4-(1-dimethylamino-3-phenyl-propyl)-cyclohexylcarbamoyl]-ethyl}-amide]: the figures for the inhibition at 10 µM in test [1] (setting [3]) and in test [2] (setting [4]) were -11% and -6%, respectively.

With `CN(C)C(CCc1ccccc1)C1CCC(NC(=O)CNC(=O)c2nc(-c3cc(Cl)cc(Cl)c3)no2)CC1` (centres unmarked) [Example 790, 3-(3,5-dichloro-phenyl)-[1,2,4]oxadiazole-5-carboxylic acid {[4-(1-dimethylamino-3-phenyl-propyl)-cyclohexylcarbamoyl]-methyl}-amide], the results for the inhibition at 10 µM in test [1] (setting [3]) and in test [2] (setting [4]) were 35% and 11%, respectively.

As for `CN(C)C(CCc1ccccc1)C1CCC(NC(=O)CNC(=O)c2nc(-c3ccccn3)no2)CC1` (centres unmarked) [Example 791, 3-pyridin-2-yl-[1,2,4]oxadiazole-5-carboxylic acid {[4-(1-dimethylamino-3-phenyl-propyl)-cyclohexylcarbamoyl]-methyl}-amide], the inhibition at 10 µM is -3% in test [1] (setting [5]) and 16% in test [2] (setting [6]).

On to `CN(C)C(CCc1ccccc1)C1CCC(NC(=O)CCNC(=O)c2nc(-c3ccc4c(c3)OCO4)no2)CC1` (centres unmarked) [Example 792, 3-benzo[1,3]dioxol-5-yl-[1,2,4]oxadiazole-5-carboxylic acid {2-[4-(1-dimethylamino-3-phenyl-propyl)-cyclohexylcarbamoyl]-ethyl}-amide], for which the inhibition at 10 µM in test [1] (setting [5]) came out at 9%; in test [2] (setting [6]), 2%.

As for `CN(C)C(CCc1ccccc1)C1CCC(NC(=O)CNC(=O)c2nc(-c3c(Cl)cccc3Cl)no2)CC1` (centres unmarked) [Example 793, 3-(2,6-dichloro-phenyl)-[1,2,4]oxadiazole-5-carboxylic acid {[4-(1-dimethylamino-3-phenyl-propyl)-cyclohexylcarbamoyl]-methyl}-amide], the inhibition at 10 µM in test [1] (setting [3]) came to 104%; in test [2] (setting [4]), 6%.

As a reminder, the inhibition is the relative decrease from the control value, in per cent.
